From ChEMBL document CHEMBL3885861, “Open TG-GATES”

Organism: Rattus norvegicus
Assay: Open TG-GATES - Regimen: Single
Assay type: toxicity, organism-based, Sprague-Dawley
Design: regimen Single, gender Male, age 6 weeks
Details: in vivo, po, 0 mg/kg, route gavage, dose level Control; for APTT / Bas / Eos / Fbg / Hb / Ht / Lym / MCH / MCHC / MCV / Mono / Neu / PT / Plat / RBC / Ret / WBC: tissue Blood; for KIDNEY_L / KIDNEY_R / KIDNEY_TOTAL: tissue Kidney; for LIVER: tissue Liver; for A/G / ALP / ALT / AST / BUN / CRE / Ca / Cl / DBIL / GLC / IP / K / LDH / Na / PL / RALB / TBIL / TC / TG / TP / gamma-GTP: tissue Plasma

## COc1ccc(Cc2nccc3cc(OC)c(OC)cc23)cc1OC [PAPAVERINE]
3 h
  TERMINAL_BW: 223.5 g
  APTT: 21.8 s
  Bas: 0%
  Eos: 0.8%
  Fbg: 332.6 mg/dL
  Hb: 13.5 g/dL
  Ht: 40.3%
  Lym: 80.6%
  MCH: 21.3 pg
  MCHC: 33.5%
  MCV: 63.4 fL
  Mono: 2.2%
  Neu: 15%
  PT: 15.8 s
  Plat: 108.7 x10_4/uL
  RBC: 637.4 x10_4/ul
  Ret: 7.9%
  WBC: 110.9 x10_2/uL
  KIDNEY_L: 1 g
  KIDNEY_R: 1 g
  KIDNEY_TOTAL: 2 g
  LIVER: 10.2 g
  A/G: 1.2
  ALP: 1651.2 IU/L
  ALT: 42.8 IU/L
  AST: 73 IU/L
  BUN: 14 mg/dL
  CRE: 0.1 mg/dL
  Ca: 11 mg/dL
  Cl: 108.6 meq/L
  DBIL: 0 mg/dL
  GLC: 193.6 mg/dL
  IP: 7.8 mg/dL
  K: 4 meq/L
  LDH: 147.2 IU/L
  Na: 141.6 meq/L
  PL: 140.2 mg/dL
  RALB: 3 g/dL
  TBIL: 0.01 mg/dL
  TC: 82.6 mg/dL
  TG: 55 mg/dL
  TP: 5.5 g/dL
  gamma-GTP: 2 IU/L
6 h
  TERMINAL_BW: 214 g
  APTT: 23 s
  Bas: 0%
  Eos: 0.6%
  Fbg: 325.8 mg/dL
  Hb: 13.8 g/dL
  Ht: 41.4%
  Lym: 82.8%
  MCH: 20.8 pg
  MCHC: 33.3%
  MCV: 62.5 fL
  Mono: 2.2%
  Neu: 13.4%
  PT: 15.9 s
  Plat: 116.4 x10_4/uL
  RBC: 664 x10_4/ul
  Ret: 7.4%
  WBC: 118.9 x10_2/uL
  KIDNEY_L: 0.9 g
  KIDNEY_R: 0.9 g
  KIDNEY_TOTAL: 1.8 g
  LIVER: 9.4 g
  A/G: 1.2
  ALP: 1310.2 IU/L
  ALT: 38.4 IU/L
  AST: 74.4 IU/L
  BUN: 10 mg/dL
  CRE: 0.1 mg/dL
  Ca: 11 mg/dL
  Cl: 106.2 meq/L
  DBIL: 0.002 mg/dL
  GLC: 180.6 mg/dL
  IP: 8.8 mg/dL
  K: 4.3 meq/L
  LDH: 159.6 IU/L
  Na: 140.8 meq/L
  PL: 131.6 mg/dL
  RALB: 2.9 g/dL
  TBIL: 0.01 mg/dL
  TC: 79.2 mg/dL
  TG: 47.6 mg/dL
  TP: 5.3 g/dL
  gamma-GTP: 2 IU/L
9 h
  TERMINAL_BW: 213.9 g
  APTT: 22.9 s
  Bas: 0%
  Eos: 1%
  Fbg: 312.8 mg/dL
  Hb: 13.1 g/dL
  Ht: 39.9%
  Lym: 81.2%
  MCH: 20.3 pg
  MCHC: 33%
  MCV: 61.6 fL
  Mono: 2.4%
  Neu: 14.4%
  PT: 15.6 s
  Plat: 107.7 x10_4/uL
  RBC: 647.6 x10_4/ul
  Ret: 7.9%
  WBC: 110.4 x10_2/uL
  KIDNEY_L: 0.9 g
  KIDNEY_R: 0.9 g
  KIDNEY_TOTAL: 1.9 g
  LIVER: 9.1 g
  A/G: 1.3
  ALP: 1489.8 IU/L
  ALT: 41.2 IU/L
  AST: 69.4 IU/L
  BUN: 11.2 mg/dL
  CRE: 0.1 mg/dL
  Ca: 10.9 mg/dL
  Cl: 105.8 meq/L
  DBIL: 0 mg/dL
  GLC: 190.8 mg/dL
  IP: 9.1 mg/dL
  K: 4.2 meq/L
  LDH: 169 IU/L
  Na: 140.6 meq/L
  PL: 134.6 mg/dL
  RALB: 3 g/dL
  TBIL: 0.016 mg/dL
  TC: 78.4 mg/dL
  TG: 75 mg/dL
  TP: 5.3 g/dL
  gamma-GTP: 1.6 IU/L
24 h
  TERMINAL_BW: 237.4 g
  APTT: 21.6 s
  Bas: 0%
  Eos: 1%
  Fbg: 315.8 mg/dL
  Hb: 13.5 g/dL
  Ht: 40%
  Lym: 81%
  MCH: 21 pg
  MCHC: 33.6%
  MCV: 62.6 fL
  Mono: 2.8%
  Neu: 14.6%
  PT: 16 s
  Plat: 106.2 x10_4/uL
  RBC: 639.4 x10_4/ul
  Ret: 7.5%
  WBC: 110.4 x10_2/uL
  KIDNEY_L: 1 g
  KIDNEY_R: 1 g
  KIDNEY_TOTAL: 2.1 g
  LIVER: 11.3 g
  A/G: 1.3
  ALP: 1563.2 IU/L
  ALT: 46.2 IU/L
  AST: 72.2 IU/L
  BUN: 15.4 mg/dL
  CRE: 0.1 mg/dL
  Ca: 10.8 mg/dL
  Cl: 106.2 meq/L
  DBIL: 0 mg/dL
  GLC: 198.2 mg/dL
  IP: 7.9 mg/dL
  K: 4.4 meq/L
  LDH: 179.4 IU/L
  Na: 143 meq/L
  PL: 142.6 mg/dL
  RALB: 3 g/dL
  TBIL: 0.01 mg/dL
  TC: 77 mg/dL
  TG: 87.8 mg/dL
  TP: 5.3 g/dL
  gamma-GTP: 1.8 IU/L
